Results as given in PubChem BioAssay AID248 (DTP/NCI, 2004).
Inconclusive results and toxic doses are left out.

Tested on: L1210 leukemia ip in BDF1 mice, survival T/C
Experiment: NCI In Vivo Anticancer Drug Screen. Data for tumor model L1210 Leukemia (intraperitoneal) in B6D2F1 (BDF1) mice
Conditions: endpoint: mean survival time, higher = longer survival
Summary of the method: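 Ratio derived from survival: compound-dosed mice over vehicle-dosed mice, all bearing a transplantable tumor.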

[1] = dose: 100.0 mg/kg/injection, schedule: Q01DX009 (ip), vehicle: Klucel (hydroxypropylcellulose) (HPC)
[2] = dose: 200.0 mg/kg/injection, schedule: Q01DX009 (ip), vehicle: Klucel (hydroxypropylcellulose) (HPC)
[3] = dose: 400.0 mg/kg/injection, schedule: Q01DX009 (ip), vehicle: Klucel (hydroxypropylcellulose) (HPC)
[4] = dose: 100.0 mg/kg/injection, schedule: Q04DX002 (ip), vehicle: Klucel (hydroxypropylcellulose) (HPC)
[5] = dose: 200.0 mg/kg/injection, schedule: Q04DX002 (ip), vehicle: Klucel (hydroxypropylcellulose) (HPC)
[6] = dose: 400.0 mg/kg/injection, schedule: Q04DX002 (ip), vehicle: Klucel (hydroxypropylcellulose) (HPC)
[7] = dose: 50.0 mg/kg/injection, schedule: Q01DX009 (ip), vehicle: saline
[8] = dose: 100.0 mg/kg/injection, schedule: Q01DX001 (ip), vehicle: carboxymethylcellulose (CMC)
[9] = dose: 200.0 mg/kg/injection, schedule: Q01DX001 (ip), vehicle: carboxymethylcellulose (CMC)
[10] = dose: 400.0 mg/kg/injection, schedule: Q01DX001 (ip), vehicle: carboxymethylcellulose (CMC)

CCOC(=O)C1C(=O)C=C(C)C(C(=O)OCC)C1c1ccc(N(C)C)cc1 (configuration not stated)
T/C (dose: 25.6 mg/kg/injection, schedule: Q04DX002 (ip), vehicle: saline with Tween-80): 92 % of control | T/C (dose: 64.0 mg/kg/injection, schedule: Q04DX002 (ip), vehicle: saline with Tween-80): 96 % of control | T/C (dose: 160.0 mg/kg/injection, schedule: Q04DX002 (ip), vehicle: saline with Tween-80): 92 % of control | T/C (dose: 400.0 mg/kg/injection, schedule: Q04DX002 (ip), vehicle: saline with Tween-80): 103 % of control

c1ccc2cc3c(ccc4cccc[n+]43)cc2c1
T/C (dose: 50.0 mg/kg/injection, schedule: Q01DX001 (ip), vehicle: saline): 119 % of control

N#[N+]c1c([O-])[nH]c(=S)[nH]c1=O
T/C (dose: 100.0 mg/kg/injection, schedule: Q01DX009 (ip), vehicle: acetone): 92 % of control | T/C (dose: 100.0 mg/kg/injection, schedule: Q04DX003 (ip), vehicle: acetone): 100 % of control | T/C (dose: 200.0 mg/kg/injection, schedule: Q01DX009 (ip), vehicle: acetone): 96 % of control | T/C (dose: 200.0 mg/kg/injection, schedule: Q04DX003 (ip), vehicle: acetone): 103 % of control | T/C (dose: 400.0 mg/kg/injection, schedule: Q01DX009 (ip), vehicle: acetone): 88 % of control | T/C (dose: 400.0 mg/kg/injection, schedule: Q04DX003 (ip), vehicle: acetone): 94 % of control

Cc1nc(N)[nH]c(=O)c1NC(=O)CCc1ccccc1
T/C (dose: 6.25 mg/kg/injection, schedule: Q01DX001 (ip), vehicle: saline with Tween-80): 105 % of control | T/C (dose: 12.5 mg/kg/injection, schedule: Q01DX001 (ip), vehicle: saline with Tween-80): 101 % of control | T/C (dose: 25.0 mg/kg/injection, schedule: Q01DX001 (ip), vehicle: saline with Tween-80): 98 % of control

O=C(Nc1cccc(Cl)c1Cl)Oc1ccc(F)cc1Cl
T/C [1]: 108 % of control | T/C [2]: 108 % of control | T/C [3]: 113 % of control

CCO/C(C)=N/OC(=O)c1ccccc1
T/C [4]: 94 % of control | T/C [5]: 110 % of control | T/C [6]: 94 % of control

COC1OC(COC(=O)c2ccc([N+](=O)[O-])cc2)C2SC12 (configuration not stated)
T/C (dose: 100.0 mg/kg/injection, schedule: Q04DX003 (ip), vehicle: Klucel (hydroxypropylcellulose) (HPC)): 104 % of control | T/C (dose: 200.0 mg/kg/injection, schedule: Q04DX003 (ip), vehicle: Klucel (hydroxypropylcellulose) (HPC)): 97 % of control | T/C (dose: 400.0 mg/kg/injection, schedule: Q04DX003 (ip), vehicle: Klucel (hydroxypropylcellulose) (HPC)): 97 % of control

CCCNC
T/C [7]: 90 % of control | T/C (dose: 100.0 mg/kg/injection, schedule: Q01DX009 (ip), vehicle: saline): 100 % of control | T/C (dose: 100.0 mg/kg/injection, schedule: Q04DX003 (ip), vehicle: saline): 96 % of control | T/C (dose: 200.0 mg/kg/injection, schedule: Q04DX003 (ip), vehicle: saline): 98 % of control

Nc1nc(SN=Nc2ccc(S(=O)(=O)O)cc2)c2[nH]cnc2n1
T/C (dose: 11.0 mg/kg/injection, schedule: Q01DX Z (ip), vehicle: alkali diluted with saline): 110 % of control | T/C (dose: 17.0 mg/kg/injection, schedule: Q01DX Z (ip), vehicle: alkali diluted with saline): 120 % of control | T/C (dose: 25.0 mg/kg/injection, schedule: Q01DX Z (ip), vehicle: alkali diluted with saline): 112 % of control | T/C (dose: 38.0 mg/kg/injection, schedule: Q01DX Z (ip), vehicle: alkali diluted with saline): 104 % of control

CCCCCCCCC(=O)Nc1nc2nc[nH]c2c(=O)[nH]1
T/C (dose: 100.0 mg/kg/injection, schedule: Q01DX001 (ip), vehicle: other): 94 % of control | T/C [1]: 94 % of control | T/C (dose: 200.0 mg/kg/injection, schedule: Q01DX001 (ip), vehicle: other): 86 % of control | T/C [2]: 90 % of control | T/C (dose: 400.0 mg/kg/injection, schedule: Q01DX001 (ip), vehicle: other): 86 % of control | T/C [3]: 90 % of control

c1ccc(-c2nnc(-c3ccccc3)o2)cc1
T/C (dose: 50.0 mg/kg/injection, schedule: Q01DX009 (ip), vehicle: Klucel (hydroxypropylcellulose) (HPC)): 95 % of control | T/C [1]: 101 % of control | T/C [2]: 94 % of control

CCN(CC)C(=S)SC(C)C(=O)OC (configuration not stated)
T/C [4]: 96 % of control | T/C [5]: 107 % of control | T/C [6]: 103 % of control

CN1C(=O)NC(=O)C12CCNCC2
T/C (dose: 100.0 mg/kg/injection, schedule: Q01DX001 (ip), vehicle: saline): 97 % of control | T/C (dose: 200.0 mg/kg/injection, schedule: Q01DX001 (ip), vehicle: saline): 103 % of control | T/C (dose: 400.0 mg/kg/injection, schedule: Q01DX001 (ip), vehicle: saline): 101 % of control

C1=CC2OC1c1ccccc12
T/C (dose: 50.0 mg/kg/injection, schedule: Q01DX001 (ip), vehicle: carboxymethylcellulose (CMC)): 95 % of control | T/C [8]: 92 % of control | T/C [9]: 106 % of control | T/C [10]: 97 % of control

CC(=O)OC1CCC2(C)C3CCC4(C)C(CC5OC54C(C)=O)C3CC3OC32C1 (configuration not stated)
T/C (dose: 50.0 mg/kg/injection, schedule: Q01DX001 (sc), vehicle: steriod suspending solution): 97 % of control | T/C (dose: 100.0 mg/kg/injection, schedule: Q01DX001 (sc), vehicle: steriod suspending solution): 101 % of control | T/C (dose: 200.0 mg/kg/injection, schedule: Q01DX001 (sc), vehicle: steriod suspending solution): 106 % of control | T/C (dose: 400.0 mg/kg/injection, schedule: Q01DX001 (sc), vehicle: steriod suspending solution): 113 % of control

COc1cc(C=Nc2ccccc2)ccc1OC(=O)c1ccccc1
T/C (dose: 100.0 mg/kg/injection, schedule: Q04DX002 (ip), vehicle: gum acacia): 103 % of control | T/C (dose: 200.0 mg/kg/injection, schedule: Q04DX002 (ip), vehicle: gum acacia): 95 % of control | T/C (dose: 400.0 mg/kg/injection, schedule: Q04DX002 (ip), vehicle: gum acacia): 88 % of control

N=c1c2c(C(N)=O)cn(C3OC(CO)C(O)C3O)c2ncn1O (configuration not stated)
T/C (dose: 2.5 mg/kg/injection, schedule: Q01DX001 (ip), vehicle: saline with Tween-80): 122 % of control | T/C (dose: 5.0 mg/kg/injection, schedule: Q01DX001 (ip), vehicle: saline with Tween-80): 117 % of control | T/C (dose: 10.0 mg/kg/injection, schedule: Q01DX001 (ip), vehicle: saline with Tween-80): 123 % of control | T/C (dose: 10.0 mg/kg/injection, schedule: Q01DX001 (ip), vehicle: saline): 153 % of control | T/C (dose: 20.0 mg/kg/injection, schedule: Q01DX001 (ip), vehicle: saline): 180 % of control

CSC(S(C)(=O)=O)S(C)(=O)=O
T/C (dose: 100.0 mg/kg/injection, schedule: Q04DX003 (ip), vehicle: saline with Tween-80): 90 % of control | T/C (dose: 200.0 mg/kg/injection, schedule: Q04DX003 (ip), vehicle: saline with Tween-80): 96 % of control | T/C (dose: 400.0 mg/kg/injection, schedule: Q04DX003 (ip), vehicle: saline with Tween-80): 98 % of control

CN1CCCCC1C[CH2][Sn]([c]1ccccc1)([c]1ccccc1)[c]1ccccc1 (configuration not stated)
T/C (dose: 3.12 mg/kg/injection, schedule: Q01DX009 (ip), vehicle: Klucel (hydroxypropylcellulose) (HPC)): 90 % of control | T/C (dose: 6.25 mg/kg/injection, schedule: Q01DX009 (ip), vehicle: Klucel (hydroxypropylcellulose) (HPC)): 90 % of control | T/C (dose: 12.5 mg/kg/injection, schedule: Q01DX009 (ip), vehicle: Klucel (hydroxypropylcellulose) (HPC)): 92 % of control | T/C (dose: 12.5 mg/kg/injection, schedule: Q04DX002 (ip), vehicle: Klucel (hydroxypropylcellulose) (HPC)): 93 % of control | T/C (dose: 25.0 mg/kg/injection, schedule: Q04DX002 (ip), vehicle: Klucel (hydroxypropylcellulose) (HPC)): 96 % of control

CCCCNc1nc(N)nc(N)c1N=Nc1ccc(Cl)cc1
T/C [8]: 101 % of control | T/C [9]: 96 % of control | T/C [10]: 98 % of control

CCCCCc1[nH]c(=O)[nH]c(=O)c1S(=O)(=O)N1CCCCC1
T/C (dose: 100.0 mg/kg/injection, schedule: Q01DX001 (ip), vehicle: Klucel (hydroxypropylcellulose) (HPC)): 107 % of control | T/C (dose: 200.0 mg/kg/injection, schedule: Q01DX001 (ip), vehicle: Klucel (hydroxypropylcellulose) (HPC)): 97 % of control | T/C (dose: 400.0 mg/kg/injection, schedule: Q01DX001 (ip), vehicle: Klucel (hydroxypropylcellulose) (HPC)): 110 % of control

C=CC[n+]1cccc2ccccc21
T/C (dose: 12.5 mg/kg/injection, schedule: Q01DX009 (ip), vehicle: saline): 97 % of control | T/C (dose: 12.5 mg/kg/injection, schedule: Q04DX003 (ip), vehicle: saline): 98 % of control | T/C (dose: 25.0 mg/kg/injection, schedule: Q01DX009 (ip), vehicle: saline): 101 % of control | T/C (dose: 25.0 mg/kg/injection, schedule: Q04DX003 (ip), vehicle: saline): 104 % of control | T/C [7]: 99 % of control | T/C (dose: 50.0 mg/kg/injection, schedule: Q04DX003 (ip), vehicle: saline): 98 % of control
